# Publication PMC6496074, “The Evolution of Azole Resistance in Candida albicans Sterol 14α-Demethylase (CYP51) through Incremental Amino Acid Substitutions” (Antimicrobial Agents and Chemotherapy, 2019)
# Values joined by “and” are separate entries in the source; they are usually repeats but may differ in a detail not shown here. Identical values can stand only once.
# How the values were obtained:
# [1] = biological target: T1, CaCYP51 Y132H+K143R (Candida albicans, UniProt P10613, K143R/Y132H); assay: Azole ligand binding (type II difference spectra); conditions: 4 μM protein, 22°C, ± standard deviation, triplicate, read-out: dissociation constant (Kd)
# T1 construct: made in house; host or cells: E. coli DH5α (pCWori+)
# T1 sequence (P10613 whole entry, looked up, stated change not applied): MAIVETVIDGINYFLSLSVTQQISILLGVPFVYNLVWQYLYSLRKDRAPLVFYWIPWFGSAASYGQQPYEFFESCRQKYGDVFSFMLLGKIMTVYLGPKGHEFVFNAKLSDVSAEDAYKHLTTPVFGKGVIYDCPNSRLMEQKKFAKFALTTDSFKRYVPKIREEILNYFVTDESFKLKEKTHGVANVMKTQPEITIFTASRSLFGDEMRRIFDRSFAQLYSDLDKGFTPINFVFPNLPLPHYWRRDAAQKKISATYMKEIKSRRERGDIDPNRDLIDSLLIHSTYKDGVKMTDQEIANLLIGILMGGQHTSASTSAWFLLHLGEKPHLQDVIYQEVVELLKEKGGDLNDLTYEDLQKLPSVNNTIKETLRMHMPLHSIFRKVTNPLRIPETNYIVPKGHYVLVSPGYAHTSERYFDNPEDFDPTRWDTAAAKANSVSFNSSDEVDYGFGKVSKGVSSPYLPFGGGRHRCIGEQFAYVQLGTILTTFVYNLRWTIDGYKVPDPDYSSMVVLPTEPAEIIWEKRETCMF
# Protocol: Studies of azole antifungal binding to 4 μM CaCYP51 proteins were performed as previously described ([53]) using quartz split cuvettes with a 4.5-mm light path. […] Azole antifungals were progressively titrated against the CaCYP51 proteins in 0.1 M Tris-HCl (pH 8.1) and 25% glycerol at 22°C, with equivalent volumes of dimethyl sulfoxide also being added to the CYP51-containing compartment of the reference cuvette. The absorbance difference spectra between 500 and 350 nm were determined after each incremental addition of azole, with binding saturation curves constructed from the change in the peak and trough absorbance (ΔApeak-trough) against the azole concentration. The dissociation constant (Kd) of the enzyme-azole complex for each azole was determined by nonlinear regression (Levenberg-Marquardt algorithm) using a rearrangement of the Morrison equation for tight ligand binding ([54], [55]). Tight binding is normally observed when the Kd for a ligand is similar to or lower than the concentration of the enzyme present ([56]). Where ligand binding was weak, the Michaelis-Menten equation was used to fit the data. Each binding determination was performed in triplicate. The chemical structures of the azole antifungals used in this study are shown in Fig. S5 in the supplemental material.
# [2] = biological target: T2, CaCYP51 Y132F (Candida albicans, UniProt P10613, Y132F); assay: CYP51 reconstitution assay; type: biochemical; conditions: mean ± SD, duplicate
# T2 construct: made in house; host or cells: E. coli DH5α (pCWori+)
# Protocol: (§1) Azole antifungal agents were added in 2.5 μl dimethyl sulfoxide, followed by 10 min of incubation at 37°C prior to assay initiation with 4 mM β-NADPH-Na4. The samples were then shaken for 15 min at 37°C. Sterol metabolites were recovered by extraction with ethyl acetate, followed by derivatization with 0.1 ml N,O-bis(trimethylsilyl)trifluoroacetamide (BSTFA)–trimethylchlorosilane (TMCS) (99:1) and 0.3 ml anhydrous pyridine (2 h at 80°C), prior to analysis by gas chromatography-mass spectrometry (GC-MS) ([52]). IC50 determinations were performed in duplicate.
# [3] = biological target: T1, CaCYP51 Y132H+K143R; assay: CYP51 reconstitution assay; type: biochemical
# Protocol: as §1
# [4] = biological target: T3, CaCYP51 Q474K (Candida albicans, UniProt P10613, Q474K); assay: CYP51 reconstitution assay; type: biochemical
# T3 construct: made in house; host or cells: E. coli DH5α (pCWori+)
# Protocol: as §1
# [5] = biological target: T4, CaCYP51 F449Y (Candida albicans, UniProt P10613, F449Y); assay: CYP51 reconstitution assay; type: biochemical
# T4 construct: made in house; host or cells: E. coli DH5α (pCWori+)
# Protocol: as §1
# [6] = biological target: T5, CaCYP51 Y257H (Candida albicans, UniProt P10613, Y257H); assay: CYP51 reconstitution assay; type: biochemical
# T5 construct: made in house; host or cells: E. coli DH5α (pCWori+)
# Protocol: as §1
# [7] = biological target: T6, CaCYP51 F126V (Candida albicans, UniProt P10613, F126V); assay: CYP51 reconstitution assay; type: biochemical
# T6 construct: made in house; host or cells: E. coli DH5α (pCWori+)
# Protocol: as §1
# [8] = biological target: T7, CaCYP51 G450E (Candida albicans, UniProt P10613, G450E); assay: CYP51 reconstitution assay; type: biochemical
# T7 construct: made in house; host or cells: E. coli DH5α (pCWori+)
# T7 sequence (P10613 whole entry, looked up, stated change not applied): as above
# Protocol: as §1
# [9] = biological target: T8, CaCYP51 Y447H (Candida albicans, UniProt P10613, Y447H); assay: CYP51 reconstitution assay; type: biochemical
# T8 construct: made in house; host or cells: E. coli DH5α (pCWori+)
# Protocol: as §1
# [10] = biological target: T9, CaCYP51 G307S (Candida albicans, UniProt P10613, G307S); assay: CYP51 reconstitution assay; type: biochemical
# T9 construct: made in house; host or cells: E. coli DH5α (pCWori+)
# Protocol: as §1
# [11] = biological target: T10, CaCYP51 G448E (Candida albicans, UniProt P10613, G448E); assay: CYP51 reconstitution assay; type: biochemical
# T10 construct: made in house; host or cells: E. coli DH5α (pCWori+)
# T10 sequence (P10613 whole entry, looked up, stated change not applied): as above
# Protocol: as §1
# [12] = biological target: T11, CaCYP51 I471T (Candida albicans, UniProt P10613, I471T); assay: CYP51 reconstitution assay; type: biochemical
# T11 construct: made in house; host or cells: E. coli DH5α (pCWori+)
# T11 sequence (P10613 whole entry, looked up, stated change not applied): as above
# Protocol: as §1
# [13] = biological target: T12, CaCYP51 Wild type (Candida albicans, UniProt P10613); assay: CYP51 reconstitution assay; type: biochemical; conditions: Wild type
# T12 construct: made in house; host or cells: E. coli DH5α (pCWori+)
# T12 sequence (P10613 whole entry, looked up, natural form): as the sequence (P10613 whole entry, looked up, stated change not applied) above
# Protocol: as §1
# [14] = biological target: T13, CaCYP51 V456I (Candida albicans, UniProt P10613, V456I); assay: CYP51 reconstitution assay; type: biochemical
# T13 construct: made in house; host or cells: E. coli DH5α (pCWori+)
# T13 sequence (P10613 whole entry, looked up, stated change not applied): as above
# Protocol: as §1
# [15] = biological target: T14, CaCYP51 V488I (Candida albicans, UniProt P10613, V488I); assay: CYP51 reconstitution assay; type: biochemical
# T14 construct: made in house; host or cells: E. coli DH5α (pCWori+)
# T14 sequence (P10613 whole entry, looked up, stated change not applied): as above
# Protocol: as §1
# [16] = biological target: T15, CaCYP51 G464S (Candida albicans, UniProt P10613, G464S); assay: CYP51 reconstitution assay; type: biochemical
# T15 construct: made in house; host or cells: E. coli DH5α (pCWori+)
# Protocol: as §1
# [17] = biological target: T16, CaCYP51 K143R (Candida albicans, UniProt P10613, K143R); assay: CYP51 reconstitution assay; type: biochemical
# T16 construct: made in house; host or cells: E. coli DH5α (pCWori+)
# T16 sequence (P10613 whole entry, looked up, stated change not applied): as above
# Protocol: as §1
# [18] = biological target: T17, CaCYP51 Y132H (Candida albicans, UniProt P10613, Y132H); assay: CYP51 reconstitution assay; type: biochemical
# T17 construct: made in house; host or cells: E. coli DH5α (pCWori+)
# Protocol: as §1
# [19] = biological target: T18, CaCYP51 S405F (Candida albicans, UniProt P10613, S405F); assay: CYP51 reconstitution assay; type: biochemical
# T18 construct: made in house; host or cells: E. coli DH5α (pCWori+)
# T18 sequence (P10613 whole entry, looked up, stated change not applied): as above
# Protocol: as §1
# [20] = biological target: T19, CaCYP51 F145L (Candida albicans, UniProt P10613, F145L); assay: CYP51 reconstitution assay; type: biochemical
# T19 construct: made in house; host or cells: E. coli DH5α (pCWori+)
# Protocol: as §1
# [21] = biological target: T20, CaCYP51 D278N (Candida albicans, UniProt P10613, D278N); assay: CYP51 reconstitution assay; type: biochemical
# T20 construct: made in house; host or cells: E. coli DH5α (pCWori+)
# Protocol: as §1
# [22] = biological target: T21, CaCYP51 S279F (Candida albicans, UniProt P10613, S279F); assay: CYP51 reconstitution assay; type: biochemical
# T21 construct: made in house; host or cells: E. coli DH5α (pCWori+)
# Protocol: as §1
# [23] = biological target: T22, CaCYP51 G307S+G450E (Candida albicans, UniProt P10613, G307S/G450E); assay: CYP51 reconstitution assay; type: biochemical
# T22 construct: made in house; host or cells: E. coli DH5α (pCWori+)
# Protocol: as §1
# [24] = biological target: T23, CaCYP51 Y118A (Candida albicans, UniProt P10613, Y118A); assay: CYP51 reconstitution assay; type: biochemical
# T23 construct: made in house; host or cells: E. coli DH5α (pCWori+)
# Protocol: as §1
# [25] = 0.25 h, 4 μM triazole, % of activity without triazole, read-out: Residual CYP51 activity (%) ± SD
compound,measurement,setting,value
"CC[C@@H]([C@H](C)O)n1ncn(-c2ccc(N3CCN(c4ccc(OC[C@@H]5CO[C@@](Cn6cncn6)(c6ccc(F)cc6F)C5)cc4)CC3)cc2)c1=O [Posaconazole, posaconazole]",Kd,[1],162 ± 59 nM
same,IC50,[2],343 ± 20 nM
same,remaining activity at 4 µM,[3]; [25],0.74 ± 0.05%
same,IC50,"[3]; mean ± SD, duplicate",196 ± 7 nM
same,remaining activity at 4 µM,[4]; [25],3.23 ± 0.18%
same,IC50,"[4]; mean ± SD, duplicate",301 ± 17 nM
same,remaining activity at 4 µM,[5]; [25],5.42 ± 0.04%
same,IC50,"[5]; mean ± SD, duplicate",366 ± 37 nM
same,remaining activity at 4 µM,[6]; [25],6.42 ± 0.59%
same,IC50,"[6]; mean ± SD, duplicate",611 ± 17 nM
same,remaining activity at 4 µM,[7]; [25],0.1 ± 0.01%
same,IC50,"[7]; mean ± SD, duplicate",304 ± 70 nM
same,remaining activity at 4 µM,[8]; [25],15.6 ± 0.21%
same,IC50,"[8]; mean ± SD, duplicate",908 ± 132 nM
same,remaining activity at 4 µM,[9]; [25],8.19 ± 3.58%
same,IC50,"[9]; mean ± SD, duplicate",439 ± 135 nM
same,remaining activity at 4 µM,[10]; [25],0.71 ± 0.04%
same,IC50,"[10]; mean ± SD, duplicate",288 ± 42 nM
same,remaining activity at 4 µM,[11]; [25],7.89 ± 0.29%
same,IC50,"[11]; mean ± SD, duplicate",542 ± 51 nM
same,remaining activity at 4 µM,[12]; [25],7.71 ± 0.58%
same,IC50,"[12]; mean ± SD, duplicate",522 ± 64 nM
same,remaining activity at 4 µM,[13]; [25],0.66 ± 0.02%
same,IC50,"[13]; mean ± SD, duplicate, read-out: IC50",200 nM and 195 nM
same,remaining activity at 4 µM,[14]; [25],6.66 ± 0.05%
same,IC50,"[14]; mean ± SD, duplicate",602 ± 17 nM
same,remaining activity at 4 µM,[15]; [25],2.11 ± 0.14%
same,IC50,"[15]; mean ± SD, duplicate",481 ± 52 nM
same,remaining activity at 4 µM,[16]; [25],0.54 ± 0.09%
same,IC50,"[16]; mean ± SD, duplicate",253 ± 24 nM
same,remaining activity at 4 µM,[17]; [25],13.09 ± 0.02%
same,IC50,"[17]; mean ± SD, duplicate",789 ± 3 nM
same,remaining activity at 4 µM,[18]; [25],0.18 ± 0.06%
same,IC50,"[18]; mean ± SD, duplicate",195 ± 3 nM
same,remaining activity at 4 µM,[19]; [25],9.38 ± 0.53%
same,IC50,"[19]; mean ± SD, duplicate",637 ± 54 nM
same,remaining activity at 4 µM,[20]; [25],1.37 ± 1.21%
same,IC50,"[20]; mean ± SD, duplicate",359 ± 18 nM
same,remaining activity at 4 µM,[21]; [25],14.8 ± 0.92%
same,IC50,"[21]; mean ± SD, duplicate",908 ± 20 nM
same,remaining activity at 4 µM,[22]; [25],20.64 ± 0.1%
same,IC50,"[22]; mean ± SD, duplicate",912 ± 16 nM
same,remaining activity at 4 µM,[23]; [25],0.26 ± 0.11%
same,IC50,"[23]; mean ± SD, duplicate",312 ± 15 nM
same,remaining activity at 4 µM,[24]; [25],0.46 ± 0.35%
same,IC50,"[24]; mean ± SD, duplicate",206 ± 4 nM
